Test results as given in patent publication US11993801B2, “Base-modified nucleotides as substrates for TdT-based enzymatic nucleic acid synthesis” (Illumina Singapore Pte. Ltd., priority 2020, dated 2024).

Legend:
[1] = biological target: T1, TdT (Bos taurus, UniProt P06526); test: TdT incorporation assay (extension of 21-nt oligonucleotide, denaturing TBE-Urea gel); type: biochemical; details: for yield of 22-nt oligo (+1 product) / yield of 23-nt oligo (+2 product) / yield of 24-nt oligo (+3 product): 40 μM nucleotide
T1 construct: purchased New England Biolab (Ipswich, MA)
T1 sequence (P06526 whole entry): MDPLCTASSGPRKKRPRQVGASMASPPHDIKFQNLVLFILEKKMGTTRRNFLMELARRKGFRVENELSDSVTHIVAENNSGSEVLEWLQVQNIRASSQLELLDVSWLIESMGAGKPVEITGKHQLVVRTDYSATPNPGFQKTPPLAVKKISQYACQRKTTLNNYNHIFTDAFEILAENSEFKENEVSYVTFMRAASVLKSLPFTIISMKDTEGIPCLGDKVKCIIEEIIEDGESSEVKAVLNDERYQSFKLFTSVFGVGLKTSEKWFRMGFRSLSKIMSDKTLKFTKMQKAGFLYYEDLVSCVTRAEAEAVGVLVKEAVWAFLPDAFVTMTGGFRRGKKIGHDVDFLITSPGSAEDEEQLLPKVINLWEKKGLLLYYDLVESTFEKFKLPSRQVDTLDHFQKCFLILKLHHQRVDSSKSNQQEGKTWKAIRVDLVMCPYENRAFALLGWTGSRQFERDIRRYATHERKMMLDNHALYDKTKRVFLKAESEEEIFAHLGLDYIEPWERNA
Protocol: DNA oligonucleotide sequence used for primer extension assays is: ATTCAGGACGAGCCTCAGACC (SEQ ID NO: 1)
[…] The solution was then heated at 95° C. for 5 minutes to inactivate TdT. UV cleavage of the photolabile group was done using an 8 W UV lamp at 365 nm for 10 minutes.
(§1) Initrogen (Carlsbad, California) Novex™ TBE-Urea gel (15%) was pre-washed with 1×TBE running buffer to remove excess urea. Oligonucleotide samples (5 μL) were mixed with Novex™ TBE-Urea Sample Buffer (2×, 5 μL). The mixture was then heated at 95° C. for 5 minutes and loaded to the gel. Gels were run in a 1×TBE running buffer at up to 240 V until the bromophenol blue reached the bottom of the gel. The gel was then visualized using Gel Doc XR+ and analyzed using the gel analysis tool in the Bio-Rad (Hercules, California) Image Lab software.

[2] = tested on: TdT; details: cited from earlier work
[3] = biological target: T1, TdT; test: 2 cycle incorporation and deprotection; type: biochemical; details: nucleotide 20 μM, 7 minutes at 37° C., 8 W UV lamp at 365 nm for 10 minutes per cycle (FIG. 5)
Protocol: A 6-fluorescein-tagged 21-nt oligonucleotide (200 nM), 1× TdT buffer (NEB), TdT (2 U μL^−1) CoCl2 (NEB, 0.25 mM) and nucleotide (20 μM) in 500 μL solution was incubated at 37° C. for 7 minutes and quenched with EDTA (50 μL, 500 mM). The solution was concentrated using MilliporeSigma (Burlington, Massachusetts) Amicon Ultra-0.5 mL Centrifugal Filters (3 kDa) to a final volume of 30 μL. Sodium Acetate solution (10 μL, 3M, pH 5.0) was added to the concentrated solution and further purified using Zymo (Irvine, California) DNA Clean & Concentrator. UV cleavage of the photolabile group was done using an 8 W UV lamp at 365 nm for 10 minutes. The steps were then repeated to give the second incorporation.
as §1

[4] = 200 nM 21-nt oligonucleotide, 1 U μL^−1 TdT, 15 minutes

Cc1cn([C@H]2C[C@H](OCN=[N+]=[N-])[C@@H](COP(=O)(O)OP(=O)(O)OP(=O)(O)O)O2)c(=O)[nH]c1=O [3′-O-azidomethyl-dTTP, reference compound]
incorporation by TdT ([1]; nucleotide 1 μM to 32 μM, 10 minutes of incubation at 37° C. (FIG. 4)): unable to incorporate

CCCCSCCc1cn([C@H]2C[C@H](O)[C@@H](COP(=O)(O)OP(=O)(O)OP(=O)(O)O)O2)c2ncnc(N)c12 [7-[2-(butylsulfanyl)ethyl]-2′-deoxy-7-deazaadenosine 5′-O-triphosphate]
number of incorporation events by TdT [2]: only a single incorporation event

Nc1ncnc2c1c(CCSc1ccccc1)cn2[C@H]1C[C@H](O)[C@@H](COP(=O)(O)OP(=O)(O)OP(=O)(O)O)O1 [7-[2-(phenylsulfanyl)ethyl]-2′-deoxy-7-deazaadenosine 5′-O-triphosphate]
number of incorporation events by TdT [2]: only a single incorporation event

NCC#Cc1cn([C@H]2C[C@H](O)[C@@H](COP(=O)(O)OP(=O)(O)OP(=O)(O)O)O2)c(=O)[nH]c1=O [propargylamino-dUTP, reference compound]
incorporation by TdT compared to that of dTTP ([1]; Lanes 6-7, FIG. 2A): significantly slower

N3-PEG4-dUTP [Compound 1]
yield of 22-nt oligo (+1 product) [1, 4]: 55%
yield of 23-nt oligo (+2 product) [1, 4]: 41%
yield of 24-nt oligo (+3 product) [1, 4]: 4%
yield of 22-nt oligo (+1 product) ([1]; 30 minutes of incubation): 35%
yield of 23-nt oligo (+2 product) ([1]; 30 minutes of incubation): 56%
yield of 24-nt oligo (+3 product) ([1]; 30 minutes of incubation): 9%

N3-PEG8-dUTP [Compound 2]
yield of 22-nt oligo (+1 product) [1, 4]: 88%
yield of 23-nt oligo (+2 product) [1, 4]: 12%
yield of 24-nt oligo (+3 product) [1, 4]: not observed
yield of 23-nt oligo (+2 product) ([1]; 30 minutes of incubation): 22%
yield of 24-nt oligo (+3 product) ([1]; 30 minutes of incubation): not observed

N3-PEG12-dUTP [Compound 3]
yield of 22-nt oligo (+1 product) [1, 4]: 94%
yield of 23-nt oligo (+2 product) ([1]; 30 minutes of incubation): 13%
yield of 24-nt oligo (+3 product) ([1]; 30 minutes of incubation): not observed

N3-PEG23-nitrobenzyl-dUTP [Compound 5]
product after 2 cycles of incorporation and photocleavage of PEG moiety [3]: the desired 23-nt oligo
incorporation by TdT ([1]; nucleotide 20 μM (Lane 10, FIG. 4)): could be incorporated
reaction time in which quantitative incorporation was achieved ([1]; optimized conditions, incorporation time varied from 5 to 9 minutes (FIG. 3)): ≤ 7 min

N3-PEG24-dUTP [Compound 4]
yield of 22-nt oligo (+1 product) [1, 4]: quantitative
yield of 22-nt oligo (+1 product) ([1]; 30 minutes of incubation): 98%
yield of 23-nt oligo (+2 product) ([1]; 30 minutes of incubation): 2%
yield of 24-nt oligo (+3 product) ([1]; 30 minutes of incubation): not observed
